Laboratory results from PubChem BioAssay (NCI).
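A five-concentration, 48-hour dose response in 96-well plates underlies each endpoint, interpolated linearly between surrounding concentrations. TGI marks complete inhibition of growth.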

Tests used:
Test in all cases: NCI tumour cell line growth inhibition, 48 h
CAKI-1 renal = system: CAKI-1 renal
PC-3 prostate = system: PC-3 prostate
CCRF-CEM leukemia = system: CCRF-CEM leukemia
HT29 colon = system: HT29 colon
RXF 393 renal = system: RXF 393 renal
IGROV1 ovarian = system: IGROV1 ovarian
ACHN renal = system: ACHN renal
MALME-3M melanoma = system: MALME-3M melanoma
MOLT-4 leukemia = system: MOLT-4 leukemia
SN12C renal = system: SN12C renal
MDA-MB-231 breast = system: MDA-MB-231 breast
786-0 renal = system: 786-0 renal
SF-295 CNS = system: SF-295 CNS
LOX IMVI melanoma = system: LOX IMVI melanoma
SW-620 colon = system: SW-620 colon
NCI-H23 lung = system: NCI-H23 lung
KM12 colon = system: KM12 colon
HS 578T breast = system: HS 578T breast
TK-10 renal = system: TK-10 renal
UO-31 renal = system: UO-31 renal
SF-539 CNS = system: SF-539 CNS
A549 NSCLC = system: A549 NSCLC
SNB-19 CNS = system: SNB-19 CNS
SNB-75 CNS = system: SNB-75 CNS
NCI-H522 lung = system: NCI-H522 lung
SK-MEL-5 melanoma = system: SK-MEL-5 melanoma
T-47D breast = system: T-47D breast
NCI-H460 lung = system: NCI-H460 lung
MDA-N = system: MDA-N
U251 CNS = system: U251 CNS
SK-MEL-28 melanoma = system: SK-MEL-28 melanoma
SF-268 CNS = system: SF-268 CNS
HCT-116 colon = system: HCT-116 colon
NCI-H226 lung = system: NCI-H226 lung
HL-60(TB) leukemia = system: HL-60(TB) leukemia
HOP-62 NSCLC = system: HOP-62 NSCLC
COLO 205 colon = system: COLO 205 colon
OVCAR-5 ovarian = system: OVCAR-5 ovarian
HCC-2998 colon = system: HCC-2998 colon
UACC-257 melanoma = system: UACC-257 melanoma
K-562 leukemia = system: K-562 leukemia
MDA-MB-435 = system: MDA-MB-435
OVCAR-8 ovarian = system: OVCAR-8 ovarian
M14 melanoma = system: M14 melanoma
RPMI-8226 leukemia = system: RPMI-8226 leukemia
OVCAR-3 ovarian = system: OVCAR-3 ovarian
MCF7 breast = system: MCF7 breast
HCT-15 colon = system: HCT-15 colon
NCI/ADR-RES ovarian = system: NCI/ADR-RES ovarian
UACC-62 melanoma = system: UACC-62 melanoma
EKVX NSCLC = system: EKVX NSCLC
DU-145 prostate = system: DU-145 prostate
HOP-92 NSCLC = system: HOP-92 NSCLC
SK-MEL-2 melanoma = system: SK-MEL-2 melanoma
A498 renal = system: A498 renal
SK-OV-3 ovarian = system: SK-OV-3 ovarian
SR leukemia = system: SR leukemia
OVCAR-4 ovarian = system: OVCAR-4 ovarian

Compound: COc1cc2c(c(OC)c1OC)C(=O)[C@@H](O)[C@H]2NC(N)=O
- TGI (CAKI-1 renal): > 100 µM
- TGI (PC-3 prostate): > 100 µM
- TGI (CCRF-CEM leukemia): > 100 µM
- TGI (HT29 colon): > 100 µM
- TGI (RXF 393 renal): > 100 µM
- TGI (IGROV1 ovarian): > 100 µM
- TGI (ACHN renal): > 100 µM
- TGI (MALME-3M melanoma): > 100 µM
- TGI (MOLT-4 leukemia): > 100 µM
- TGI (SN12C renal): > 100 µM
- TGI (MDA-MB-231 breast): > 100 µM
- TGI (786-0 renal): > 100 µM
- TGI (SF-295 CNS): > 100 µM
- TGI (LOX IMVI melanoma): > 100 µM
- TGI (SW-620 colon): > 100 µM
- TGI (NCI-H23 lung): > 100 µM
- TGI (KM12 colon): > 100 µM
- TGI (HS 578T breast): > 100 µM
- TGI (TK-10 renal): > 100 µM
- TGI (UO-31 renal): > 100 µM
- TGI (SF-539 CNS): > 100 µM
- TGI (A549 NSCLC): > 100 µM
- TGI (SNB-19 CNS): > 100 µM
- TGI (SNB-75 CNS): > 100 µM
- TGI (NCI-H522 lung): > 100 µM
- TGI (SK-MEL-5 melanoma): > 100 µM
- TGI (T-47D breast): > 100 µM
- TGI (NCI-H460 lung): > 100 µM
- TGI (MDA-N): > 100 µM
- TGI (U251 CNS): > 100 µM
- TGI (SK-MEL-28 melanoma): > 100 µM
- TGI (SF-268 CNS): > 100 µM
- TGI (HCT-116 colon): > 100 µM
- TGI (NCI-H226 lung): > 100 µM
- TGI (HL-60(TB) leukemia): > 100 µM
- TGI (HOP-62 NSCLC): > 100 µM
- TGI (COLO 205 colon): > 100 µM
- TGI (OVCAR-5 ovarian): > 100 µM
- TGI (HCC-2998 colon): > 100 µM
- TGI (UACC-257 melanoma): > 100 µM
- TGI (K-562 leukemia): > 100 µM
- TGI (MDA-MB-435): > 100 µM
- TGI (OVCAR-8 ovarian): > 100 µM
- TGI (M14 melanoma): > 100 µM
- TGI (RPMI-8226 leukemia): > 100 µM
- TGI (OVCAR-3 ovarian): > 100 µM
- TGI (MCF7 breast): > 100 µM
- TGI (HCT-15 colon): > 100 µM
- TGI (NCI/ADR-RES ovarian): > 100 µM
- TGI (UACC-62 melanoma): > 100 µM
- TGI (EKVX NSCLC): > 100 µM
- TGI (DU-145 prostate): > 100 µM

Compound: CC(=O)N1C(=O)c2cc3ccccc3cc21
- TGI (PC-3 prostate): > 100 µM
- TGI (CCRF-CEM leukemia): > 100 µM
- TGI (IGROV1 ovarian): > 100 µM
- TGI (ACHN renal): > 100 µM
- TGI (SN12C renal): > 100 µM
- TGI (MDA-MB-231 breast): > 100 µM
- TGI (786-0 renal): > 100 µM
- TGI (LOX IMVI melanoma): > 100 µM
- TGI (SW-620 colon): > 100 µM
- TGI (NCI-H23 lung): > 100 µM
- TGI (HOP-92 NSCLC): > 100 µM
- TGI (SK-MEL-2 melanoma): > 100 µM
- TGI (HS 578T breast): > 100 µM
- TGI (TK-10 renal): > 100 µM
- TGI (UO-31 renal): > 100 µM
- TGI (SF-539 CNS): > 100 µM
- TGI (A549 NSCLC): > 100 µM
- TGI (SNB-19 CNS): > 100 µM
- TGI (SNB-75 CNS): > 100 µM
- TGI (A498 renal): 89.4 µM
- TGI (SK-MEL-5 melanoma): > 100 µM
- TGI (T-47D breast): > 100 µM
- TGI (NCI-H460 lung): > 100 µM
- TGI (MDA-N): > 100 µM
- TGI (U251 CNS): > 100 µM
- TGI (SK-MEL-28 melanoma): > 100 µM
- TGI (SF-268 CNS): > 100 µM
- TGI (HCT-116 colon): > 100 µM
- TGI (NCI-H226 lung): > 100 µM
- TGI (HL-60(TB) leukemia): > 100 µM
- TGI (SK-OV-3 ovarian): > 100 µM
- TGI (HOP-62 NSCLC): > 100 µM
- TGI (SR leukemia): > 100 µM
- TGI (COLO 205 colon): > 100 µM
- TGI (OVCAR-5 ovarian): > 100 µM
- TGI (HCC-2998 colon): > 100 µM
- TGI (K-562 leukemia): > 100 µM
- TGI (MDA-MB-435): > 100 µM
- TGI (OVCAR-8 ovarian): > 100 µM
- TGI (M14 melanoma): > 100 µM
- TGI (RPMI-8226 leukemia): > 100 µM
- TGI (MCF7 breast): > 100 µM
- TGI (HCT-15 colon): > 100 µM
- TGI (NCI/ADR-RES ovarian): > 100 µM
- TGI (UACC-62 melanoma): > 100 µM
- TGI (EKVX NSCLC): > 100 µM
- TGI (DU-145 prostate): > 100 µM

Compound: O=C(NCCCl)Nc1ccccc1
- TGI (CAKI-1 renal): > 100 µM
- TGI (PC-3 prostate): > 100 µM
- TGI (CCRF-CEM leukemia): > 100 µM
- TGI (HT29 colon): > 100 µM
- TGI (RXF 393 renal): > 100 µM
- TGI (IGROV1 ovarian): > 100 µM
- TGI (ACHN renal): > 100 µM
- TGI (MALME-3M melanoma): > 100 µM
- TGI (MOLT-4 leukemia): > 100 µM
- TGI (SN12C renal): > 100 µM
- TGI (OVCAR-4 ovarian): > 100 µM
- TGI (MDA-MB-231 breast): > 100 µM
- TGI (786-0 renal): > 100 µM
- TGI (SF-295 CNS): > 100 µM
- TGI (LOX IMVI melanoma): > 100 µM
- TGI (SW-620 colon): > 100 µM
- TGI (NCI-H23 lung): > 100 µM
- TGI (KM12 colon): > 100 µM
- TGI (HOP-92 NSCLC): > 100 µM
- TGI (SK-MEL-2 melanoma): > 100 µM
- TGI (HS 578T breast): > 100 µM
- TGI (UO-31 renal): > 100 µM
- TGI (A549 NSCLC): > 100 µM
- TGI (SNB-19 CNS): > 100 µM
- TGI (SNB-75 CNS): > 100 µM
- TGI (A498 renal): > 100 µM
- TGI (NCI-H522 lung): > 100 µM
- TGI (SK-MEL-5 melanoma): > 100 µM
- TGI (T-47D breast): > 100 µM
- TGI (NCI-H460 lung): > 100 µM
- TGI (MDA-N): > 100 µM
- TGI (U251 CNS): > 100 µM
- TGI (SK-MEL-28 melanoma): > 100 µM
- TGI (SF-268 CNS): > 100 µM
- TGI (HCT-116 colon): > 100 µM
- TGI (NCI-H226 lung): > 100 µM
- TGI (HL-60(TB) leukemia): > 100 µM
- TGI (SK-OV-3 ovarian): > 100 µM
- TGI (HOP-62 NSCLC): > 100 µM
- TGI (SR leukemia): > 100 µM
- TGI (COLO 205 colon): > 100 µM
- TGI (OVCAR-5 ovarian): > 100 µM
- TGI (HCC-2998 colon): > 100 µM
- TGI (UACC-257 melanoma): > 100 µM
- TGI (K-562 leukemia): > 100 µM
- TGI (MDA-MB-435): > 100 µM
- TGI (OVCAR-8 ovarian): > 100 µM
- TGI (RPMI-8226 leukemia): > 100 µM
- TGI (OVCAR-3 ovarian): > 100 µM
- TGI (MCF7 breast): > 100 µM
- TGI (HCT-15 colon): > 100 µM
- TGI (NCI/ADR-RES ovarian): > 100 µM
- TGI (UACC-62 melanoma): > 100 µM
- TGI (EKVX NSCLC): > 100 µM
- TGI (DU-145 prostate): > 100 µM
